According to patent publication US9149038B2, “4-amino-6-(heterocyclic)picolinates and 6-amino-2-(heterocyclic)pyrimidine-4-carboxylates and their use as herbicides” (Dow AgroSciences LLC, priority 2013, dated 2015):
Read-outs that look alike come from different tables or passages of the source.

Tested on: Wheat and Barley and weed species
Test: Post-Emergent Test III: postemergent herbicidal activity in wheat and barley, visual rating after 21 d and probit GR20/GR50/GR80/GR90 (Tables 9-13)
Assay type: in vivo
Conditions: for pest or weed control at 17.5 g/ha / pest or weed control at 35 g/ha / pest or weed control at 70 g/ha: post-emergence, 504 h
Summary of the method: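 Greenhouse plants (~18/17 °C, 14 h photoperiod) at second–third true leaf stage sprayed at 187 L/ha with a high rate and ½× to 1/16× serial dilutions. Visual injury 0–100% versus solvent-blank controls scored at 21 d; GR20, GR50, GR80 and GR90 derived by probit analysis across rates.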

Q: What does the source list for `Nc1c(F)c(-c2cc3c(cc2F)OC(F)(F)O3)nc(C(=O)O)c1Cl` [Compound 13]?
A: GR50 ALOMY (ALOMY black-grass (Alopecurus myosuroides), growth reduction of 50%, probit analysis): 20 g ai/ha; GR80 ALOMY (ALOMY black-grass (Alopecurus myosuroides), growth reduction of 80%, probit analysis): 40 g ai/ha; GR90 ALOMY (ALOMY black-grass (Alopecurus myosuroides), growth reduction of 90%, probit analysis): 57 g ai/ha; GR50 APESV (APESV bentgrass (Apera spica-venti), growth reduction of 50%, probit analysis): >70 g ai/ha; GR80 APESV (APESV bentgrass (Apera spica-venti), growth reduction of 80%, probit analysis): >70 g ai/ha; GR90 APESV (APESV bentgrass (Apera spica-venti), growth reduction of 90%, probit analysis): >70 g ai/ha; GR20 HORVS (HORVS barley, spring (crop), growth reduction of 20%, probit analysis): 2 g ai/ha; pest or weed control at 17.5 g/ha (Hordeum vulgare, HORVS barley, spring (crop), 17.5 g ai/ha, read-out: Visual Growth Reduction (%) 21 Days After Application HORVS): 60 to 74%; pest or weed control at 35 g/ha (Hordeum vulgare, HORVS barley, spring (crop), 35 g ai/ha, read-out: Visual Growth Reduction (%) 21 Days After Application HORVS): 75 to 84%; pest or weed control at 70 g/ha (Hordeum vulgare, HORVS barley, spring (crop), 70 g ai/ha, read-out: Visual Growth Reduction (%) 21 Days After Application HORVS): 85 to 94%; GR50 LOLSS (LOLSS ryegrass, growth reduction of 50%, probit analysis): >70 g ai/ha; GR80 LOLSS (LOLSS ryegrass, growth reduction of 80%, probit analysis): >70 g ai/ha; GR90 LOLSS (LOLSS ryegrass, growth reduction of 90%, probit analysis): >70 g ai/ha; Visual Growth Reduction (%) 21 Days After Application MATCH (MATCH wild chamomile (Matricaria recutita L.), 17.5 g ai/ha): G (0-29); Visual Growth Reduction (%) 21 Days After Application MATCH (MATCH wild chamomile (Matricaria recutita L.), 35 g ai/ha): F (30-44); Visual Growth Reduction (%) 21 Days After Application MATCH (MATCH wild chamomile (Matricaria recutita L.), 70 g ai/ha): D (60-74); GR50 MATCH (MATCH wild chamomile (Matricaria recutita L.), growth reduction of 50%, probit analysis): 58 g ai/ha; GR80 MATCH (MATCH wild chamomile (Matricaria recutita L.), growth reduction of 80%, probit analysis): >70 g ai/ha; GR90 MATCH (MATCH wild chamomile (Matricaria recutita L.), growth reduction of 90%, probit analysis): >70 g ai/ha; GR50 SETVI (SETVI green foxtail (Setaria viridis), growth reduction of 50%, probit analysis): 4 g ai/ha; GR80 SETVI (SETVI green foxtail (Setaria viridis), growth reduction of 80%, probit analysis): 20 g ai/ha; GR90 SETVI (SETVI green foxtail (Setaria viridis), growth reduction of 90%, probit analysis): 45 g ai/ha; GR20 TRZAS (TRZAS wheat, spring (crop), growth reduction of 20%, probit analysis): 2 g ai/ha; pest or weed control at 17.5 g/ha (Triticum aestivum, TRZAS wheat, spring (crop), 17.5 g ai/ha, read-out: Visual Growth Reduction (%) 21 Days After Application TRZAS): 60 to 74%; pest or weed control at 35 g/ha (Triticum aestivum, TRZAS wheat, spring (crop), 35 g ai/ha, read-out: Visual Growth Reduction (%) 21 Days After Application TRZAS): 75 to 84%; pest or weed control at 70 g/ha (Triticum aestivum, TRZAS wheat, spring (crop), 70 g ai/ha, read-out: Visual Growth Reduction (%) 21 Days After Application TRZAS): 75 to 84%; Visual Growth Reduction (%) 21 Days After Application VERPE (VERPE bird's-eye speedwell (veronica persica), 17.5 g ai/ha): C (75-84); Visual Growth Reduction (%) 21 Days After Application VERPE (VERPE bird's-eye speedwell (veronica persica), 35 g ai/ha): B (85-94); Visual Growth Reduction (%) 21 Days After Application VERPE (VERPE bird's-eye speedwell (veronica persica), 70 g ai/ha): A (95-100); GR50 VERPE (VERPE bird's-eye speedwell (veronica persica), growth reduction of 50%, probit analysis): 3 g ai/ha; GR80 VERPE (VERPE bird's-eye speedwell (veronica persica), growth reduction of 80%, probit analysis): 16 g ai/ha; GR90 VERPE (VERPE bird's-eye speedwell (veronica persica), growth reduction of 90%, probit analysis): 37 g ai/ha; pest or weed control at 17.5 g/ha (ALOMY black-grass (Alopecurus myosuroides), 17.5 g ai/ha, read-out: Visual Growth Reduction (%) 21 Days After Application ALOMY): 45 to 59%; pest or weed control at 35 g/ha (ALOMY black-grass (Alopecurus myosuroides), 35 g ai/ha, read-out: Visual Growth Reduction (%) 21 Days After Application ALOMY): 60 to 74%; pest or weed control at 70 g/ha (ALOMY black-grass (Alopecurus myosuroides), 70 g ai/ha, read-out: Visual Growth Reduction (%) 21 Days After Application ALOMY): 95 to 100%; pest or weed control at 17.5 g/ha (APESV bentgrass (Apera spica-venti), 17.5 g ai/ha, read-out: Visual Growth Reduction (%) 21 Days After Application APESV): 0 to 29%; pest or weed control at 35 g/ha (APESV bentgrass (Apera spica-venti), 35 g ai/ha, read-out: Visual Growth Reduction (%) 21 Days After Application APESV): 45 to 59%; pest or weed control at 70 g/ha (APESV bentgrass (Apera spica-venti), 70 g ai/ha, read-out: Visual Growth Reduction (%) 21 Days After Application APESV): 60 to 74%; pest or weed control at 17.5 g/ha (LOLSS ryegrass, 17.5 g ai/ha, read-out: Visual Growth Reduction (%) 21 Days After Application LOLSS): 0 to 29%; pest or weed control at 35 g/ha (LOLSS ryegrass, 35 g ai/ha, read-out: Visual Growth Reduction (%) 21 Days After Application LOLSS): 0 to 29%; pest or weed control at 70 g/ha (LOLSS ryegrass, 70 g ai/ha, read-out: Visual Growth Reduction (%) 21 Days After Application LOLSS): 0 to 29%; pest or weed control at 17.5 g/ha (SETVI green foxtail (Setaria viridis), 17.5 g ai/ha, read-out: Visual Growth Reduction (%) 21 Days After Application SETVI): 60 to 74%; pest or weed control at 35 g/ha (SETVI green foxtail (Setaria viridis), 35 g ai/ha, read-out: Visual Growth Reduction (%) 21 Days After Application SETVI): 75 to 84%; pest or weed control at 70 g/ha (SETVI green foxtail (Setaria viridis), 70 g ai/ha, read-out: Visual Growth Reduction (%) 21 Days After Application SETVI): 95 to 100%
